Key:
HDAC = experiment: In vitro HDAC-inhibition assay (Fluor de Lys fluorescent activity assay); type: biochemical; conditions: HDAC enzyme source (e.g. nuclear extract or immunopurified HDAC complexes), Fluor de Lys substrate, 30 minutes RT
Experimental: 1) In vitro HDAC-inhibition Assay:
This assay measures a compound's ability to inhibit acetyl-lysine deacetylation in vitro and was used as both a primary screening method as well as for IC50 determinations of confirmed inhibitors. The assay is performed in vitro using an HDAC enzyme source (e.g. partially purified nuclear extract or immunopurified HDAC complexes) and a proprietary fluorescent substrate/developer system (HDAC Quantizyme Fluor de Lys Fluorescent Activity Assay, BIOMOL). The assay is run in 1,536-well Greiner white-bottom plates using the following volumes and order of addition: • Step 1: Enzyme (2.5 μL) source added to plate (from refrigerated container) • Step 2: Compounds (50 nL) added with pin transfer device • Step 3: Fluor de Lys (2.5 μL) substrate added, incubate at RT, 30 minutes • Step 4: Developer (5 μL) solution is added (containing TSA), to stop reaction • Step 5: Plate Reader—data collection
The deacetylated fluorophore is excited with 360 nm light and the emitted light (460 nm) is detected on an automated fluorometric plate reader (Aquest, Molecular Devices).

HDAC in cells = experiment: Cellular HDAC inhibition (cellular histone hyperacetylation / cytotoxicity assays; Table 1 only says Cellular IC50); type: cell-based; conditions: transformed cell lines (e.g. HeLa, A549, MCF-7); cell line not given
Experimental: 2) Cellular Histone Hyperacetylation Assays:
These two secondary assays evaluate a compound's ability to inhibit HDAC in cells by measuring cellular histone acetylation levels. The cytoblot facilitates quantitative EC50 information for cellular HDAC inhibition. Transformed cell lines (e.g. HeLa, A549, MCF-7) are cultured under standard media and culture conditions prior to plating.
Cells (approx. 2,500/well) are allowed to adhere 10-24 hours to wells of a 384-well Greiner PS assay plate in media containing 1-5% serum. Cells are treated with appropriate compound and specific concentrations for 0 to 24 hours. Cells are washed once with PBS (60 μL) and then fixed (95% ethanol, 5% acetic acid or 2% PFA) for 1 minute at RT (30 μL). Cells are blocked with 1% BSA for 1 hour and washed and stained with antibody (e.g. anti-Acetylated Histone H3, Upstate Biotechnology), followed by washing and incubation with an appropriate secondary antibody conjugated to HRP or fluorophore. For luminescence assays, signal is generated using Luminol substrate (Santa Cruz Biotechnology) and detected using an Aquest plate reader (Molecular Devices).
3) Differential Cytotoxicity Assay:
HDAC inhibitors display differential cytotoxicity toward certain transformed cell lines. Cells are cultured according to standard ATCC recommended conditions that are appropriate to each cell type. Compounds were tested for their ability to kill different cell types (normal and transformed) using the ATPlite luminescence ATP detection assay system (Perkin Elmer). Assays are run in either 384-well or 1536-well Greiner PS plates. Cells (30 μL or 5 μL, respectively) are dispensed using either multichannel pipette for 384-well plates, or proprietary Kalypsys bulk liquid dispenser for 1536-well plates. Compounds added using proprietary pin-transfer device (500 nL or 5 nL) and incubated 5 to 30 hours prior to analysis. Luminescence is measured using Aquest plate reader (Molecular Devices).

`CC(=O)SCC(=O)c1ccc(NS(=O)(=O)c2ccc(OCC3CCCN(C)C3)cc2)nc1` (stereo not drawn) [Example 31, Thioacetic acid S-(2-{6-[4-(1-methyl-piperidin-3-ylmethoxy)-benzenesulfonylamino]-pyridin-3-yl}-2-oxo-ethyl) ester] gave an IC50 (HDAC) of at most 1 µM and an IC50 (HDAC in cells) of at most 1 µM.
Work on `CC(=O)SCC(=O)c1ccc(NS(=O)(=O)c2ccc(OC(C)CN3CCCCC3)cc2)nc1` (stereo not drawn) [Example 32, Thioacetic acid S-(2-{6-[4-(1-methyl-2-piperidin-1-yl-ethoxy)-benzenesulfonylamino]-pyridin-3-yl}-2-oxo-ethyl) ester] yielded an IC50 (HDAC) of at most 1 µM and an IC50 (HDAC in cells) of at most 1 µM.
Work on `CC(=O)SCC(=O)c1ccc(NS(=O)(=O)c2ccc(OCCCN3CCCC3)cc2)nc1` [Example 33, Thioacetic acid S-(2-oxo-2-{6-[4-(3-pyrrolidin-1-yl-propoxy)-benzenesulfonylamino]-pyridin-3-yl}-ethyl) ester] yielded an IC50 (HDAC) of at most 1 µM and an IC50 (HDAC in cells) of at most 1 µM.

From patent US20070135431A1, “INHIBITORS OF HISTONE DEACETYLASE FOR THE TREATMENT OF DISEASE” (KALYPSYS, INC, priority 2005, published 2007)
